# Laboratory results reported in patent publication US20020032193A1, “Use of potassium channel openers for the treatment of insulitis” (priority 2000, published 2002).
# How the values were obtained:
# ischemic heart = conditions: Garlid KD et al., Circulation Res 1997; cited from earlier work
# Rat islets [1] = assay: Insulin release after alloxan exposure; format: cell-based, Sprague-Dawley rats; conditions: for counteraction of alloxan-induced reduction of insulin release: 0.3 mM opener, simultaneous incubation with 0.5 mM alloxan
# Protocol: (§1) Pancreata from Sprague-Dawley rats were collagenase digested and islets collected with a braking pipette as previously described (Sandler S et al., Endocrinology, 1987;121:1424-31). Islets were precultured free floating in RPMI 1640 medium with 10% (v/v) fetal calf serum (FCS) and 11 mM glucose for 3 days in 5% CO2 at 37° C. before experiments. Medium was changed two times during preculture. Islets were then transferred to sterile Petri dishes in KRBH (Krebs-Ringer bicarbonate with HEPES) medium with 2 mg/mL bovine serum albumin (BSA) and 5.6 mM glucose.
# (§2) Stock solutions of test compounds dissolved in dimethyl sulphoxide were prepared and added to the Petri dishes. Islets were incubated in 5% CO2 at 37° C. for 30 minutes with or without test compounds and STZ in 0.9% NaCl was then added to a final concentration of 0.5 mM. Dry powder of alloxan was diluted to a stock of 50 mM just before the addition to the Petri dishes to a final concentration of 0.5 mM. The incubation continued for another 30 minutes and was terminated by the addition of 1 mL of cold KRBH. The islets were then washed twice in KRBH and studied for morphology and insulin secretion, or cultured for 2 or 24 hours in RPMI with 10% FCS and 11 mM glucose prior to morphological and biochemical examinations.
# (§3) Triplicates of five islets were transferred to 200 μl of KRBH with 2 mg/mL BSA and 16.7 mM glucose and incubated for 60 minutes in 5% CO2 at 37° C. Islets from each condition were then pooled and sonicated in 200 μl of redestilled water. A 50 μl aliquot of the homogenate was mixed with 125 μl acid ethanol (0.18 M HCl in 95% ethanol) and insulin extracted overnight. Insulin concentration in the sonicate and the culture medium was determined with radioimmunoassay.
# Rat islets [2] = assay: Glucose oxidation after alloxan exposure; format: cell-based, Sprague-Dawley rats; conditions: for glucose oxidation rate, of control: islets treated with 0.5 mM alloxan in the presence of opener, 24 hours
# Protocol: as §1, §2
# Groups of 10 islets were transferred to glass vials with 100 μl KRBH supplemented with D-[U^14C]glucose and nonradioactive glucose to a final concentration of 16.7 mM glucose. Triplicate samples were used. The vials were suspended in scintillation flasks, gassed with 5% CO2 and sealed airtight. The flasks were then shaken for 90 minutes at 37° C. Metabolism was stopped by injection of 100 μl of 0.05 mM antimycin A into the center vial. Immediately thereafter 250 μl hyamine hydroxide was injected into the outer flask. CO2 was released from the incubation medium by injecting 100 μl of 0.4 M Na2HPO4 solution (pH 6.0) into the center vial. […] Scintillation fluid was then added to each flask and the radioactivity counted in a liquid scintillation counter.
# Rat islets [3] = assay: Insulin secretion and islet insulin content after streptozotocin exposure; format: cell-based, Sprague-Dawley rats; conditions: 24 hours; for insulin content compared to islets incubated with STZ alone / insulin secretion compared to islets incubated with STZ alone: pre-incubated with KATP channel opener, then 0.5 mM STZ
# Protocol: as §1, §2, §3
# Rat islets [4] = assay: Islet recovery after streptozotocin exposure; format: cell-based, Sprague-Dawley rats
# Protocol: as §1
# as §2, with “The islets were then washed twice in KRBH and studied for morphology and insulin secretion, or cultured for 2 or 24 hours in RPMI with 10% FCS and 11 mM glucose prior to morphological and biochemical examinations.” left out
# About 100 islets per condition were carefully transferred to a glass tube and spun down at 800 rpm for 1 minute. […] For estimation of islet recovery, 30 islets from each condition were transferred to Petri dishes as described above and the remaining islets counted after 24 hours.
# Rat islets [5] = assay: Proinsulin and total protein biosynthesis after streptozotocin exposure; format: cell-based, Sprague-Dawley rats
# Protocol: as §1, §2
# For each condition duplicate samples of 20 islets were transferred to multiwell plates containing 100 μl KRBH with L-[4.5-^3H]leucine (50 μCi/ml), 2 mg/mL BSA and 16.7 mM glucose and incubated for 120 minutes in 5% C02 at 37° C. Islets were then washed in Hanks' solution supplemented with 10 mM nonradioactive leucine and subsequently sonicated in 200 μl of redestilled water. A 50 μl fraction of the aqueous homogenate was incubated for 90 minutes with insulin antibodies coupled to Sepharose beads to separate proinsulin from other labelled proteins (15). Total protein biosynthesis was obtained by precipitating the labelled proteins with trichloroacetic acid (TCA). The antibody bound and TCA precipitable radioactivity were determined in a liquid scintillation counter.
# Rat islets [6] = assay: Glucose oxidation after streptozotocin exposure; format: cell-based, Sprague-Dawley rats
# Protocol: as §1
# as §2, with “The islets were then washed twice in KRBH and studied for morphology and insulin secretion, or cultured for 2 or 24 hours in RPMI with 10% FCS and 11 mM glucose prior to morphological and biochemical examinations.” left out
# Groups of 10 islets were transferred to glass vials with 100 μl KRBH supplemented with D-[U^14C]glucose and nonradioactive glucose to a final concentration of 16.7 mM glucose. […] Scintillation fluid was then added to each flask and the radioactivity counted in a liquid scintillation counter.
# [7] = recovered STZ islets at 24 hours
# [8] = remaining islets after STZ 0.5 mM
# [9] = 0.3 mM test compound + 0.5 mM STZ
smiles,measurement,setting,value
CC1(C)Oc2ccc(C#N)cc2C(N2CCCC2=O)C1O (stereo not drawn) [cromakalim],effect in ischemic heart,ischemic heart,"beneficial, cardioprotective effect"
CC1=NS(=O)(=O)c2cc(Cl)ccc2N1 [diazoxide],effect in ischemic heart,ischemic heart,"beneficial, cardioprotective effect"
same,counteraction of alloxan-induced reduction of insulin release,Rat islets [1],fully counteracted
same,"glucose oxidation rate, of control",Rat islets [2],73%
same,insulin content compared to islets incubated with STZ alone,Rat islets [3],higher
same,insulin secretion compared to islets incubated with STZ alone,Rat islets [3],higher
"CN(N=O)C(=O)N[C@H]1C(O)O[C@H](CO)[C@@H](O)[C@@H]1O (mixture of isomers) [STZ, streptozotocin]",islet loss,"Rat islets [4]; STZ 0.5 mM for 30 minutes, then 24 hours culture",40%
same,"proinsulin biosynthesis, of control",Rat islets [5]; [7],35%
same,"total protein biosynthesis, of control",Rat islets [5]; [7],51%
same,proinsulin/total protein biosynthesis ratio,"Rat islets [5]; recovered STZ islets at 24 hours, 23% in control islets",15%
same,"insulin biosynthesis, of control","Rat islets [5]; remaining islets after STZ 0.5 mM, 24 hours",35%
same,"rate of glucose oxidation, of control","Rat islets [6]; islets after STZ 0.5 mM, 24 hours",16%
same,"insulin content, of control",Rat islets [3]; [8],50%
same,"insulin secretion, of control",Rat islets [3]; [8],60%
O=C1NC(=O)C(=O)C(=O)N1 [alloxan],reduction of insulin release,Rat islets [1]; 0.5 mM alloxan,31%
same,decrease of glucose oxidation rate,"Rat islets [2]; 0.5 mM alloxan, after 24 hours",51%
"CC(C)NC1=NS(=O)(=O)c2sc(Cl)cc2N1 [6-Chloro-3-isopropylamino-4H-thieno[3,2-e]-1,2,4-thiadiazine 1,1-dioxide]",islet loss,"Rat islets [4]; 0.3 mM test compound preincubated 30 minutes + 0.5 mM STZ, 24 hours culture",no islet loss
same,insulin biosynthesis compared to islets incubated with STZ alone,Rat islets [5]; [9],higher
same,glucose oxidation rate compared to islets incubated with STZ alone,Rat islets [6]; [9],higher
same,counteraction of alloxan-induced reduction of insulin release,Rat islets [1],fully counteracted
same,"glucose oxidation rate, of control",Rat islets [2],did not differ from control
same,insulin content compared to islets incubated with STZ alone,Rat islets [3],higher
same,insulin secretion compared to islets incubated with STZ alone,Rat islets [3],higher
CC(N/C(=N\C#N)Nc1ccncc1)C(C)(C)C (stereo not drawn) [pinacidil],effect in ischemic heart,ischemic heart,"beneficial, cardioprotective effect"
